Laboratory results published in patent US20230279001A1, “IMIDAZO[1,2-A]PYRIDINE COMPOUNDS FOR THE TREATMENT OF AUTOIMMUNE DISEASE” (Hoffmann-La Roche Inc., priority 2020, published 2023).

How the values were obtained:
[1] = Human microsome stability assay; type: in vitro ADME; details: human liver microsomes, 1 μM test compound, 37° C., NADPH regenerating system
Experimental: The human microsomal stability assay is used for early assessment of metabolic stability of a test compound in human liver microsomes.
Human liver microsomes (Cat. NO.: 452117, Corning, USA; Cat. NO.: H2610, Xenotech, USA) were preincubated with test compound for 10 minutes at 37° C. in 100 mM potassium phosphate buffer, pH 7.4. The reactions were initiated by adding NADPH regenerating system. The final incubation mixtures contained 1 μM test compound, 0.5 mg/mL liver microsomal protein, 1 mM MgCl2, 1 mM NADP, 1 unit/mL isocitric dehydrogenase and 6 mM isocitric acid in 100 mM potassium phosphate buffer, pH 7.4. After incubation times of 0, 3, 6, 9, 15 and 30 minutes at 37° C., 300 μL of cold acetonitrile (including internal standard) was added to 100 μL incubation mixture to terminate the reaction. Following precipitation and centrifugation, the amount of compound remaining in the samples were determined by LC-MS/MS. Controls of no NADPH regenerating system at zero and 30 minutes were also prepared and analyzed.

[2] = Parallel Artificial Membrane Permeability Assay (PAMPA); type: in vitro ADME; details: for Membrane Retention / Papp at 4 h: PAMPA, pH 7.40, 4 hours; for Papp at 4 h: pH 7.4, room temperature, read-out: PAMPA Pe; for PAMPA category: classified by Pe and membrane retention
Experimental: PAMPA (Parallel Artificial Membrane Permeability Assay) is a first-line permeability screen for drug candidates. This assay mimics the transcellular absorption conditions using an artificial phospholipid membrane and generates a permeability value that can be used for compound ranking and optimization as well as input parameters for in silico models to predict intestinal absorption.
Permeation experiments are carried out in hydrophobic PVDF 96-well microtiter filter plates (MultiScreen Filter Plate, Millipore, #MAIPN4550). Each well is coated with PVDF membrane, which is prepared with 5 μL Dodecane (Sigma, D221104) that contains 1% lecithin (Sigma, P3556-1G).
The typical PAMPA experimental protocol is as follows: The donor plate is placed on a Teflon acceptor plate that has been pre-filled with […] of 100 mM PBS buffer (2.6 g KH2PO4 and 18.5 g K2HPO4·3H2O are dissolved in about 1000 mL of ultra-pure water and mixed thoroughly. The pH is adjusted to 7.40±0.05, using either 1 M sodium hydroxide or 1M hydrochloric acid) containing 5% DMSO. The filter on the bottom of each acceptor well is filled with 300 μL of 100 mM PBS buffer (2.6 g KH2PO4 and 18.5 g K2HPO4·3H2O are dissolved in about 1000 mL of ultra-pure water, mixed thoroughly. The pH was adjusted to 7.40±0.05, using either 1 M sodium hydroxide or 1M hydrochloric acid). The resulting sandwich is incubated at room temperature under constant shaking (300 rpm) for 4 hours. The sandwich is then disassembled. Before incubation, spike 20 μL dosing solution and mix with 250 μL PBS and 130 μL quench solution (acetonitrile) as TO sample. After incubation, collect 270 μL solutions from acceptor chamber, followed by the addition of 130 μL acetonitrile. Collect 20 μL solution from donor chamber and add 250 μL PBS and 130 μL acetonitrile. The concentration of compound in all samples are determined by LC-MS/MS and the equations for determining the permeability (Pe, 10^−6 cm/s) are as follows.
VD is the volume of the donor well; VR is the volume of the acceptor well; Area is the active surface area of membrane; Time is the incubation time (14,400 s in this assay); CR and CD are the concentrations of compound in acceptor and donor solutions, respectively, at the completion of the assay; C0 is the concentration of compound in donor solution before incubation.
The main readout of the PAMPA assay is the permeability value Pe expressed in 10^−6 cm/s. Secondary readouts determined are the amounts of compound in the donor and acceptor compartments as well as compound retention in the membrane. Depending on the permeation rate and the membrane retention, compounds are classified as “low” (Pe<0.2 and membrane retention<20%) or “medium & high” (Pe>=0.2; or Pe<0.2 and membrane retention>=20%). Each sample is measured in triplicate; the standard deviation is determined for the permeation constant Pe.

TLR9 = TLR9 (Homo sapiens (Human), UniProt Q9NR96); assay: HEK293-Blue-hTLR-9 cells assay; type: cell-based; details: HEK293-Blue-hTLR9 cells, ODN2006 stimulation, 20 hrs, SEAP reporter; read-out: HEK/hTLR9 IC50
Chain of TLR9 (Q9NR96 26-1032): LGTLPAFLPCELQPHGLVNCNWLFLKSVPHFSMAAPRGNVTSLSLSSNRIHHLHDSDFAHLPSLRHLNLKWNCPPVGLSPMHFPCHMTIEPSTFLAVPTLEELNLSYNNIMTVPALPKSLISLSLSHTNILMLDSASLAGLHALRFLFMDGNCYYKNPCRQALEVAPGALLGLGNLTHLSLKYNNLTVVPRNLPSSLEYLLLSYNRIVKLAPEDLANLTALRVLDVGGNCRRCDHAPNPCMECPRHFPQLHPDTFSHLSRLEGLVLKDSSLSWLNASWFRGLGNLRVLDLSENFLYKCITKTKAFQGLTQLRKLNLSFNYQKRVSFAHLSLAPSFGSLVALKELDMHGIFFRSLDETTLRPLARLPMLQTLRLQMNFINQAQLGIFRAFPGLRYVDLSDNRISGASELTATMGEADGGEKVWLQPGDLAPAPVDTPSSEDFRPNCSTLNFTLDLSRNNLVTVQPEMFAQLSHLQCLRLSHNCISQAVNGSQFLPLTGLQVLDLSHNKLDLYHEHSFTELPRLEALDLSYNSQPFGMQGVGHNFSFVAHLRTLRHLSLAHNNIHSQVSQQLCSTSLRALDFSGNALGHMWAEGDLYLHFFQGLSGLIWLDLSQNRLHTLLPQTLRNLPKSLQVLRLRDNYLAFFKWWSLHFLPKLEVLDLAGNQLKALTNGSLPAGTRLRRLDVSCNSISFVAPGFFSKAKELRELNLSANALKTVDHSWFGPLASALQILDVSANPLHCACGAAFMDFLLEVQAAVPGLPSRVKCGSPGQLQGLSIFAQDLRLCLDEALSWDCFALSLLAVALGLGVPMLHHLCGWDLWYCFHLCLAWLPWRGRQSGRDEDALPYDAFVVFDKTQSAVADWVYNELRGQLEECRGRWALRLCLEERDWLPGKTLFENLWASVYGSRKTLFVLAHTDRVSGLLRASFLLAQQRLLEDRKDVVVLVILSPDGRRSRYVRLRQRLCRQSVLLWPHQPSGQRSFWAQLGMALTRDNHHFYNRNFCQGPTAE
Source text: A stable HEK293-Blue-hTLR-9 cell line was purchased from InvivoGen (Cat. #: hkb-htlr9, San Diego, Calif., USA). These cells were originally designed for studying the stimulation of human TLR9 by monitoring the activation of NF-κB. A SEAP (secreted embryonic alkaline phosphatase) reporter gene was placed under the control of the IFN-β minimal promoter fused to five NF-κB and AP-1-binding sites. The SEAP was induced by activating NF-κB and AP-1 via stimulating HEK-Blue hTLR9 cells with TLR9 ligands. Therefore the reporter expression was declined by TLR9 antagonist under the stimulation of a ligand, such as ODN2006 (Cat. #: tlr1-2006-1, Invivogen, San Diego, Calif., USA), for incubation of 20 hrs. The cell culture supernatant SEAP reporter activity was determined using QUANTI-Blue™ kit (Cat. #: rep-qb1, Invivogen, San Diego, Calif., USA) at a wavelength of 640 nm, a detection medium that turns purple or blue in the presence of alkaline phosphatase.
HEK293-Blue-hTLR9 cells were incubated at a density of 250,000˜450,000 cells/mL in a volume of 170 μL in a 96-well plate in Dulbecco's Modified Eagle's medium (DMEM) containing 4.5 g/L glucose, 50 U/mL penicillin, […], 2 mM L-glutamine, 10% (v/v) heat-inactivated fetal bovine serum with addition of 20 μL test compound in a serial dilution in the presence of final DMSO at 1% and 10 μL, of 20 uM ODN2006 in above DMEM, perform incubation under 37° C. in a CO2 incubator for 20 hrs. Then 20 μL of the supernatant from each well was incubated with 180 μL, Quanti-blue substrate solution at 37° C. for 2 h and the absorbance was read at 620655 nm using a spectrophotometer. The signaling pathway that TLR9 activation leads to downstream NF-κB activation has been widely accepted, and therefore similar reporter assay was modified for evaluating TLR9 antagonist.

Row | SMILES | Clearance of Human microsome [1] [mL/min/kg] | Membrane Retention [2] [%] | Papp at 4 h [2] [×10⁻⁶ cm/s] | PAMPA category [2] | IC50 (TLR9) [nM]
1 | Cc1cn2cc(-c3ccc(N4CCC(N5CCNCC5)CC4)nc3C(F)F)cc(C)c2n1 [Example 11, 6-[2-(difluoromethyl)-6-(4-piperazin-1-yl-1-piperidyl)-3-pyridyl]-2,8-dimethyl-imidazo[1,2-a]pyridine] | 7.02 | 9.47 | 0.84 | medium & high (“medium & high” (Pe>=0.2; or Pe<0.2 and membrane retention>=20%)) | 111
2 | Cc1cn2cc(-c3ccc(N4CCC(N5CC(C)(N)C5)CC4)nc3C(F)F)cc(C)c2n1 [Example 12, 1-[1-[6-(difluoromethyl)-5-(2,8-dimethylimidazo[1,2-a]pyridin-6-yl)-2-pyridyl]-4-piperidyl]-3-methyl-azetidin-3-amine] | 6.15 | 7.03 | 1 | medium & high (“medium & high” (Pe>=0.2; or Pe<0.2 and membrane retention>=20%)) | 145
3 | CCc1cc(-c2cc(C)c3nccn3c2)cnc1N1CCC2(CCNCC2)CC1 [Example 22, 3-[3-ethyl-5-(8-methylimidazo[1,2-a]pyridin-6-yl)-2-pyridyl]-3,9-diazaspiro[5.5]undecane] | 6.15 | 26.45 | 0.5 | medium & high (“medium & high” (Pe>=0.2; or Pe<0.2 and membrane retention>=20%)) | 132
